Legend:
MAP4K4 = MAP4K4 (Homo sapiens, UniProt O95819); test: Kinase activity assay, MAP4K4
Kdr = Kdr (Homo sapiens, UniProt P35968); test: Kinase activity assay, Kdr
B-Raf = B-Raf (Homo sapiens, UniProt P15056); test: Kinase activity assay, B-Raf; assay type: biochemical; conditions: read-out: activity toward kinase B-Raf, IC50
Src = Src (Homo sapiens, UniProt P12931); test: Kinase activity assay, Src
Fms = Fms (Homo sapiens, UniProt P07333); test: Kinase activity assay, Fms
Kit = Kit (Homo sapiens, UniProt P10721); test: Kinase activity assay, Kit
C-Raf = C-Raf (Homo sapiens, UniProt P04049); test: Kinase activity assay, C-Raf
B-Raf V600E = B-Raf V600E (Homo sapiens, UniProt P15056, V600E); test: Kinase activity assay, B-Raf V600E; assay type: biochemical; conditions: read-out: activity toward kinase B-Raf V600E, IC50

Measured: IC50

Sequence of MAP4K4 (O95819 whole entry): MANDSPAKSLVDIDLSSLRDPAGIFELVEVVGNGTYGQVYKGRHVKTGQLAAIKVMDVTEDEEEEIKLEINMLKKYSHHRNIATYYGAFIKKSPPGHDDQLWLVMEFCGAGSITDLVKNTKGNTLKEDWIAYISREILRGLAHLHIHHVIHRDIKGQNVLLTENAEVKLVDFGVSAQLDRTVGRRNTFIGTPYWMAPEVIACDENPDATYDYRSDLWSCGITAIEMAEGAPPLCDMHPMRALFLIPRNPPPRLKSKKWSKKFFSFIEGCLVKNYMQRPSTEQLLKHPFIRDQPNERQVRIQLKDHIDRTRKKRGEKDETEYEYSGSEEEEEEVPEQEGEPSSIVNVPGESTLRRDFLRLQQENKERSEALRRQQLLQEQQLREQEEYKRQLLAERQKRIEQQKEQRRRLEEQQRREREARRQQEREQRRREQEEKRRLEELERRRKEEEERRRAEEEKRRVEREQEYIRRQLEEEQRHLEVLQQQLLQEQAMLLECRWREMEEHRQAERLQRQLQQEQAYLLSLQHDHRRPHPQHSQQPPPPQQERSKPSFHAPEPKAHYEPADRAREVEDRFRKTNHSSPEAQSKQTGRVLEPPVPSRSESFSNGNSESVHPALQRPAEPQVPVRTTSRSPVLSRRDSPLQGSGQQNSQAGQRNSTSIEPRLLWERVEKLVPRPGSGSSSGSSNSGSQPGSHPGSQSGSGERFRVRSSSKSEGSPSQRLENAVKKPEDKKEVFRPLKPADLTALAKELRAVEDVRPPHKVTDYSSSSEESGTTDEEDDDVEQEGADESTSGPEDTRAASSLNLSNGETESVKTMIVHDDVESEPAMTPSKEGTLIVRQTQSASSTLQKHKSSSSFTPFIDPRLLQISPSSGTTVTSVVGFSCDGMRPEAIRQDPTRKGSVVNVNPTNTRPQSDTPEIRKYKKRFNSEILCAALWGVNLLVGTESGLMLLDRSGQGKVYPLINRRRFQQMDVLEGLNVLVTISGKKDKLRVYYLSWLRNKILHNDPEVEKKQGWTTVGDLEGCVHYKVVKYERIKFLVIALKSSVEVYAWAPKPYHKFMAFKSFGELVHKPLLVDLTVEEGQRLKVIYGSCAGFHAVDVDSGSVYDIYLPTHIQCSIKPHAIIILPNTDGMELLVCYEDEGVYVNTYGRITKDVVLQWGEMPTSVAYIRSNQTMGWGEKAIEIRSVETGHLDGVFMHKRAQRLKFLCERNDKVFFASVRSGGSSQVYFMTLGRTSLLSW
Sequence of B-Raf V600E (P15056 whole entry V600E): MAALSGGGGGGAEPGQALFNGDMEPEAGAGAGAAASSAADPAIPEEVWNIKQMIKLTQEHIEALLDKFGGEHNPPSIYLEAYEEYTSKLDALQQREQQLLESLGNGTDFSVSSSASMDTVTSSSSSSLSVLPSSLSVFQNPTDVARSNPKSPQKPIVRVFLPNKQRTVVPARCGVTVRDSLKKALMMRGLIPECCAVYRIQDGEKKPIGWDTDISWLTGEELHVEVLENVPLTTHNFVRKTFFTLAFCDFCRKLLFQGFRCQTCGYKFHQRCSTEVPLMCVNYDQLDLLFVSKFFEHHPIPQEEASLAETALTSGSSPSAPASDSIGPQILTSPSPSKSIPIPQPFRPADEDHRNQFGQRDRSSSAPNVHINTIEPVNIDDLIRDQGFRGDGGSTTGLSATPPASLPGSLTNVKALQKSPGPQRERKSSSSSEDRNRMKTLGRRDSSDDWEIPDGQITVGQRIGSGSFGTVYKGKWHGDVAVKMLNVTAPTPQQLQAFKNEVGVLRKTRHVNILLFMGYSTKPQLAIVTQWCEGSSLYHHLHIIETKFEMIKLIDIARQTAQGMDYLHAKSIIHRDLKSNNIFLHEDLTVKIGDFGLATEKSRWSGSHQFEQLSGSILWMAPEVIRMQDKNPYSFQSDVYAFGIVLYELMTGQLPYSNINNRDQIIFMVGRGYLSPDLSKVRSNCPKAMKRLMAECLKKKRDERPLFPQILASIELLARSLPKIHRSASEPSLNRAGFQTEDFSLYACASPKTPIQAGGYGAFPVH
Sequence of Kdr (P35968 20-1356): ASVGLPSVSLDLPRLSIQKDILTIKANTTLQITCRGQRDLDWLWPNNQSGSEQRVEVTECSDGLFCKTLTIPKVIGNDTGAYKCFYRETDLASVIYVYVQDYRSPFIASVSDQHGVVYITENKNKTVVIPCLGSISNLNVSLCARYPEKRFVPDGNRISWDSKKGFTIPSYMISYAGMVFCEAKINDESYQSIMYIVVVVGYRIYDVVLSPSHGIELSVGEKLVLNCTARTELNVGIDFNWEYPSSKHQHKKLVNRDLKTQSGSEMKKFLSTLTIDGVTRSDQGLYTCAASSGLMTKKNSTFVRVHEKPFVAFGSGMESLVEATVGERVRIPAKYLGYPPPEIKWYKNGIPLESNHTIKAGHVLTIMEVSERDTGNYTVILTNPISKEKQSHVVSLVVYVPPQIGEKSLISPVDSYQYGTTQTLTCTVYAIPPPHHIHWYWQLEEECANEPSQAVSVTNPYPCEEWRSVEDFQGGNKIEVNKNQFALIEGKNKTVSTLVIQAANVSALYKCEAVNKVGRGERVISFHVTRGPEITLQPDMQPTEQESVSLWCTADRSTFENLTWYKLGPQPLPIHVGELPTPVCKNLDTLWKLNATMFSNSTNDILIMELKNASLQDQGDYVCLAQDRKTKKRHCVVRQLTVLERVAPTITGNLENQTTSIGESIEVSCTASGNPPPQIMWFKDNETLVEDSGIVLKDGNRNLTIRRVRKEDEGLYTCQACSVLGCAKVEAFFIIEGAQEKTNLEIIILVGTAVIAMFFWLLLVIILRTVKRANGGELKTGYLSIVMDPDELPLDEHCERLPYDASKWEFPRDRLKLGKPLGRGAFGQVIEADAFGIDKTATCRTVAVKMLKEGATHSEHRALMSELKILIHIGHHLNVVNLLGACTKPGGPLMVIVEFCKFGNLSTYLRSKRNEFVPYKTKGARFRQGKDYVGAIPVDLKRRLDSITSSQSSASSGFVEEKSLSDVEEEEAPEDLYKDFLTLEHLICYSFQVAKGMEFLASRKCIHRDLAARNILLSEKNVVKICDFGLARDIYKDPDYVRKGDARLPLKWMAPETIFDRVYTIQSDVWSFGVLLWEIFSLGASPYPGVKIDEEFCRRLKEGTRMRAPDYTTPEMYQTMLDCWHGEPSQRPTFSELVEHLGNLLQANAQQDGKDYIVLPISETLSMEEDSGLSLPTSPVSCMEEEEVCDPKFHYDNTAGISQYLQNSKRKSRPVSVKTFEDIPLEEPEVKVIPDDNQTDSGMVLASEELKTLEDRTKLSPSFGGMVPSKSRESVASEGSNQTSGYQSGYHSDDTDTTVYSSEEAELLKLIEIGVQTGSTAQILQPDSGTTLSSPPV
Sequence of Src (P12931 whole entry): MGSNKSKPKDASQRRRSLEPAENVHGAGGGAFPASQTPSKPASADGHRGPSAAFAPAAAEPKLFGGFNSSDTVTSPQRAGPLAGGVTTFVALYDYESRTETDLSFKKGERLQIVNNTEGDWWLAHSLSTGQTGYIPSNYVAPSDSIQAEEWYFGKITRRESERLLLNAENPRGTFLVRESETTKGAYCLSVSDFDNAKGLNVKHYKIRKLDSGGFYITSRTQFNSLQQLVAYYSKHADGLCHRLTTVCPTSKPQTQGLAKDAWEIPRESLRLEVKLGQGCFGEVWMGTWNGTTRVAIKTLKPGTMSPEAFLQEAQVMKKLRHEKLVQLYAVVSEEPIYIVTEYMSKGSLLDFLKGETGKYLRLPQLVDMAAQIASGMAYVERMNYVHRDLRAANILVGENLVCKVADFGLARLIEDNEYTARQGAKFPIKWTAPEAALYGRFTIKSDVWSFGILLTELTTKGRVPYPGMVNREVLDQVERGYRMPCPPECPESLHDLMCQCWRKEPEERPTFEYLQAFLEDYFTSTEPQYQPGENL
Sequence of B-Raf (P15056 whole entry): as the sequence (P15056 whole entry V600E) above, with E600V counted along it
Sequence of Kit (P10721 26-976): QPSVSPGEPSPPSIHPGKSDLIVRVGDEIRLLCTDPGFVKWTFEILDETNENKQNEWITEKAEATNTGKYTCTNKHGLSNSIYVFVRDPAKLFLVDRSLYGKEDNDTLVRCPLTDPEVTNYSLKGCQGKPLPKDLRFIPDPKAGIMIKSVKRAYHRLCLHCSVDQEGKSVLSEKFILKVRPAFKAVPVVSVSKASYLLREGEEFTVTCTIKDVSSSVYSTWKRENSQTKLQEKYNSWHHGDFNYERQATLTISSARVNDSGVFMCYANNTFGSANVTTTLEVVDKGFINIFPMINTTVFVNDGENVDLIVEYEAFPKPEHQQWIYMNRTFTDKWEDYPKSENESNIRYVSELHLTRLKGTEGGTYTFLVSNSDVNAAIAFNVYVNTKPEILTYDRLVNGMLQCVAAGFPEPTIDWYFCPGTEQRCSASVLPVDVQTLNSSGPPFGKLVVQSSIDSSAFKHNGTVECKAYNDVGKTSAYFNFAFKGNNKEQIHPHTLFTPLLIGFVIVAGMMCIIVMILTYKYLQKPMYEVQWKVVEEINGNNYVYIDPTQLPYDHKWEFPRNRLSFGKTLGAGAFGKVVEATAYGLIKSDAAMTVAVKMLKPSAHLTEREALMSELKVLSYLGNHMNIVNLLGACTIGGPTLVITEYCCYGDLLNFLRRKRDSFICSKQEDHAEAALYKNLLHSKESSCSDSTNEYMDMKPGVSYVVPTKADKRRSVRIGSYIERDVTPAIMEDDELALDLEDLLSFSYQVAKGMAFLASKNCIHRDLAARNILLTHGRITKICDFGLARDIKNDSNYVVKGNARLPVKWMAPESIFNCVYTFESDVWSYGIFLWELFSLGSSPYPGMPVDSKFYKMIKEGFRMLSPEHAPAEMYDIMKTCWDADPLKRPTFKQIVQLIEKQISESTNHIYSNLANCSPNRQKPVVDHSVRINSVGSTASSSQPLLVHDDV

O=C(O)CCc1cccc(-c2cnc3[nH]cc(C(=O)c4cccc(NS(=O)(=O)c5cccnc5)c4)c3c2)c1 [P-2148, 3-(3-{3-[3-(Pyridine-3-sulfonylamino)-benzoyl]-1H-pyrrolo[2,3-b]pyridin-5-yl}-phenyl)-propionic acid]
not listed: C-Raf | B-Raf V600E
≤ 10 µM: all other assays above

O=C(CCCCC1SCC2NC(=O)NC21)NCCCCCNC(=O)CCc1cnc2[nH]cc(C(=O)c3c(F)ccc(NS(=O)(=O)c4ccc(C(F)(F)F)cc4)c3F)c2c1 (stereo not drawn) [P-2008, 5-(2-Oxo-hexahydro-thieno[3,4-d]imidazol-6-yl)-pentanoic acid [5-(3-{3-[2,6-difluoro-3-(4-trifluoromethyl-benzenesulfonylamino)-benzoyl]-1H-pyrrolo[2,3-b]pyridin-5-yl}-propionylamino)-pentyl]-amide]
not listed: Src
≤ 10 µM: all other assays above

CCCS(=O)(=O)Nc1ccc(F)c(C(=O)c2c[nH]c3ncc(-c4cnc(C)nc4)cc23)c1F [P-2211, Propane-1-sulfonic acid {2,4-difluoro-3-[5-(2-methyl-pyrimidin-5-yl)-1H-pyrrolo[2,3-b]pyridine-3-carbonyl]-phenyl}-amide]
not listed: Kit
≤ 10 µM: all other assays above

O=C(c1cccc(NS(=O)(=O)c2cccnc2)c1)c1c[nH]c2ncc(F)cc12 [P-2143, Pyridine-3-sulfonic acid [3-(5-fluoro-1H-pyrrolo[2,3-b]pyridine-3-carbonyl)-phenyl]-amide]
≤ 10 µM: MAP4K4 | C-Raf | Kdr | Fms

O=C(c1cccc(NS(=O)(=O)C2CCCC2)c1)c1c[nH]c2ncc(Cl)cc12 [P-2453, Cyclopentanesulfonic acid [3-(5-chloro-1H-pyrrolo[2,3-b]pyridine-3-carbonyl)-phenyl]-amide]
≤ 10 µM: MAP4K4 | Kdr | B-Raf V600E | Fms | Kit

CCCS(=O)(=O)Nc1ccc(F)c(C(=O)c2c[nH]c3ncc(-c4ccc(CCCOC)nc4)cc23)c1F [P-2226, Propane-1-sulfonic acid (2,4-difluoro-3-{5-[6-(3-methoxy-propyl)-pyridin-3-yl]-1H-pyrrolo[2,3-b]pyridine-3-carbonyl}-phenyl)-amide]
≤ 10 µM: all assays above

O=C(O)CCc1cccc(-c2cnc3[nH]cc(C(=O)c4cccc(NS(=O)(=O)C5CCCCC5)c4)c3c2)c1 [P-2465, 3-{3-[3-(3-Cyclohexanesulfonylamino-benzoyl)-1H-pyrrolo[2,3-b]pyridin-5-yl]-phenyl}-propionic acid]
not listed: C-Raf
≤ 10 µM: all other assays above

N#Cc1cnc2[nH]cc(C(=O)c3c(F)ccc(NS(=O)(=O)CCC(F)(F)F)c3F)c2c1 [P-2331, 3,3,3-Trifluoro-propane-1-sulfonic acid [3-(5-cyano-1H-pyrrolo[2,3-b]pyridine-3-carbonyl)-2,4-difluoro-phenyl]-amide]
≤ 10 µM: all assays above

O=C(c1c(F)ccc(NS(=O)(=O)c2ccc(F)cc2F)c1F)c1c[nH]c2nccc(Cl)c12 [P-2034, N-[3-(4-Chloro-1H-pyrrolo[2,3-b]pyridine-3-carbonyl)-2,4-difluoro-phenyl]-2,4-difluoro-benzenesulfonamide]
not listed: Fms
≤ 10 µM: all other assays above

Cc1cnc2[nH]cc(C(=O)c3c(F)ccc(NS(=O)(=O)c4ccc(F)cc4F)c3F)c2c1 [P-2025, N-[2,4-Difluoro-3-(5-methyl-1H-pyrrolo[2,3-b]pyridine-3-carbonyl)-phenyl]-2,4-difluoro-benzenesulfonamide]
not listed: Fms
≤ 10 µM: all other assays above

Cc1cnc2[nH]cc(C(=O)c3cccc(NS(=O)(=O)c4cccnc4)c3)c2c1 [P-2141, Pyridine-3-sulfonic acid [3-(5-methyl-1H-pyrrolo[2,3-b]pyridine-3-carbonyl)-phenyl]-amide]
≤ 10 µM: MAP4K4 | Kdr | Fms | Kit

CCCCS(=O)(=O)Nc1ccc(F)c(C(=O)c2c[nH]c3ncc(-c4ccc(Cl)cc4)cc23)c1F [P-2300, Butane-1-sulfonic acid {3-[5-(4-chloro-phenyl)-1H-pyrrolo[2,3-b]pyridine-3-carbonyl]-2,4-difluoro-phenyl}-amide]
≤ 10 µM: MAP4K4 | Kdr | Src | Fms | Kit

CCCS(=O)(=O)Nc1ccc(F)c(C(=O)c2c[nH]c3ncc(-c4ccc(S(=O)(=O)NCCO)cc4)cc23)c1F [P-2221, 4-{3-[2,6-Difluoro-3-(propane-1-sulfonylamino)-benzoyl]-1H-pyrrolo[2,3-b]pyridin-5-yl}-N-(2-hydroxy-ethyl)-benzenesulfonamide]
≤ 10 µM: MAP4K4 | Kdr | Fms | Kit

Cc1cnc2[nH]cc(C(=O)c3c(F)ccc(NS(=O)(=O)C4CCCCC4)c3F)c2c1 [P-2360, Cyclohexanesulfonic acid [2,4-difluoro-3-(5-methyl-1H-pyrrolo[2,3-b]pyridine-3-carbonyl)-phenyl]-amide]
not listed: Fms
≤ 10 µM: all other assays above

Cc1cnc2[nH]cc(C(=O)c3cccc(NS(=O)(=O)C4CCCCC4)c3)c2c1 [P-2458, Cyclohexanesulfonic acid [3-(5-methyl-1H-pyrrolo[2,3-b]pyridine-3-carbonyl)-phenyl]-amide]
≤ 10 µM: MAP4K4 | Kdr | Fms | Kit

Cc1cnc2[nH]cc(C(=O)c3cc(NS(=O)(=O)c4cccnc4)ccc3F)c2c1 [P-2137, Pyridine-3-sulfonic acid [4-fluoro-3-(5-methyl-1H-pyrrolo[2,3-b]pyridine-3-carbonyl)-phenyl]-amide]
≤ 10 µM: MAP4K4 | Kdr | Src | Fms

O=C(c1c(F)ccc(NS(=O)(=O)c2c(F)cccc2F)c1F)c1c[nH]c2nccc(Cl)c12 [P-2033, N-[3-(4-Chloro-1H-pyrrolo[2,3-b]pyridine-3-carbonyl)-2,4-difluoro-phenyl]-2,6-difluoro-benzenesulfonamide]
not listed: Fms
≤ 10 µM: all other assays above

CCCS(=O)(=O)Nc1ccc(F)c(C(=O)c2c[nH]c3ncc(-c4nn[nH]n4)cc23)c1F [P-2242, Propane-1-sulfonic acid {2,4-difluoro-3-[5-(2H-tetrazol-5-yl)-1H-pyrrolo[2,3-b]pyridine-3-carbonyl]-phenyl}-amide]
≤ 10 µM: MAP4K4 | Kdr | Src | Fms | Kit

O=C(c1cccc(NS(=O)(=O)C2CCCCC2)c1)c1c[nH]c2ncc(Cl)cc12 [P-2452, Cyclohexanesulfonic acid [3-(5-chloro-1H-pyrrolo[2,3-b]pyridine-3-carbonyl)-phenyl]-amide]
≤ 10 µM: MAP4K4 | Kdr | B-Raf V600E | Fms | Kit
